These results are taken from paper PMC8539310, “In Vitro Anti-HIV-1 Reverse Transcriptase and Integrase Properties of Punica granatum L. Leaves, Bark, and Peel Extracts and Their Main Compounds” (Plants, 2021).

A value given as a limit tells only on which side of the number the result lay.

The target in series [1] is T1, HIV-1 RT-associated RNase H (Human immunodeficiency virus type 1 group M subtype B, UniProt P04585).
T1 construct: HIV-1 group M subtype B heterodimeric RT; made in house
In words: RNase H polymerase independent cleavage assay. The class given is biochemical. The following applies: for remaining activity at 100 µM: read-out: Percentage of control RNase H activity in the presence of the indicated drug concentration. The method, then:
HIV-1 group M subtype B heterodimeric RT was expressed and purified essentially as previously described.
HIV RT-associated RNase H activity was measured as described by Corona et al. 2016 [68] using the RNase H inhibitor RDS1759 as a control. Data analysis of the assay results was performed using GraphPad Prism 9.

The target of series [2] is T2, HIV-1 IN in the presence of LEDGF/p75 (Human immunodeficiency virus type 1 group M subtype B, UniProt P04585).
T2 construct: Recombinant IN and LEDGF/p75 proteins were expressed and purified; made in house
In words: HTRF IN LEDGF-dependent assay. The class given is biochemical. As to conditions: for remaining activity at 100 µM: read-out: Percentage of control IN LEDGF-dependent activity in the presence of the indicated drug concentration; for Inhibition of HIV-1 IN LEDGF-dependent activity (in words): highest tested concentration; for IC50: pure compounds, in the presence of LEDGF, read-out: HIV-1 Integrase LEDGF-Dependent IC50. The method, then: Recombinant IN and LEDGF/p75 proteins were expressed and purified as described by Esposito et al. 2020 [67].
The IN activity was measured in the presence of LEDGF/p75 cellular cofactor in an HTRF assay. Data analysis of the assay results was performed using GraphPad Prism 9.

A further series deals with HIV-1 protease. The following applies: cited from earlier work.
The subject of series [3] is HIV-1 infection in Jurkat cells. Also on record: method as in PMID 22140483. As to conditions: cited from earlier work.
The test system of the next series is X4-tropic HIV-1. Also on record: method as in PMID 29480632. The following applies: target cells; cited from earlier work.
For a further series, the system named is target cells. The following applies: cited from earlier work.
The test system of series [4] is HIV RT DNA polymerase activity. Also noted: method as in Nutan et al. 2013 51. The following applies: ref Nutan et al. 2013 51; cited from earlier work.
The test system of a further series is HIV-1 in H9 lymphocytes. Also on record: method as in PMID 1698933. As to conditions: infected H9 lymphocytes; cited from earlier work.
For the next series, the system named is H9 lymphocytes. Also noted: method as in PMID 1698933. The following applies: cited from earlier work.
Series [5] concerns HIV-1 RT, wild-type and mutant. Also on record: method as in PMID 23821410. As to conditions: wild-type and mutant RTs; cited from earlier work.

As usually defined, the IC50 is the point on the concentration scale where inhibition reaches its midpoint.

Regarding `O=c1cc(-c2ccc(O)cc2)oc2cc(O[C@@H]3O[C@H](CO)[C@@H](O)[C@H](O)[C@H]3O)cc(O)c12` [Apigenin 7-O-glucoside], the remaining activity at 100 µM in series [1] was 100%. The same compound displayed an IC50 in [1] (pure compounds) of more than 100 µM. In series [2], the remaining activity at 100 µM was determined as 100%, the “Inhibition of HIV-1 IN LEDGF-dependent activity (in words)” value (from here on “Inhibition … (in words)”) was “totally inactive” and the IC50 was more than 100 µM.

`C[C@H]1[C@H](C)CC[C@]2(C(=O)O)CC[C@]3(C)C(=CC[C@@H]4[C@@]5(C)CC[C@H](O)C(C)(C)[C@@H]5CC[C@]43C)[C@H]12` [Ursolic acid] gave an IC50 in [1] (pure compounds) of 5.7 ± 0.1 µM. Further, in series [2], the remaining activity at 100 µM amounted to 68%, the “Inhibition … (in words)” value was “inactive” and the IC50 is more than 100 µM. Besides, the “Inhibition of protease expression” value in the series with HIV-1 protease is given as “inhibit”.

For the compound `O=c1cc(-c2ccc(O[C@@H]3O[C@H](CO)[C@@H](O)[C@H](O)[C@H]3O)c(O)c2)oc2cc(O)cc(O)c12` [Luteolin 4′-O-glucoside], the remaining activity at 100 µM in [1] and in series [2] was 100% each time. Besides, the IC50 in [1] (pure compounds) and in [2] was more than 100 µM in each case. In addition, in [2], the “Inhibition … (in words)” value was “totally inactive”.

With `O=c1cc(-c2ccc(O)c(O)c2)oc2cc(O)cc(O)c12` [Luteolin], the results for the IC50 in [1] (pure compounds) and in [2] were 3.7 ± 0.5 µM and 6.5 ± 0.5 µM, respectively. In [3], the “Inhibition of HIV-1 infection” value is given as “capable of inhibiting”.

Consider `O=c1oc2c(O)c(O)cc3c(=O)oc4c(O)c(O)cc1c4c23` [Ellagic acid], for which the IC50 is 1.4 ± 0.11 µM in [1] (pure compounds) and 0.075 ± 0.0005 µM in series [2]. The “Suppression of replication of X4-tropic HIV-1” value with X4-tropic HIV-1 is listed as “able to suppress”. For the same compound, the Cytotoxicity result in the series on target cells is listed as “without cytotoxicity”. Also, the “Inhibition of HIV-1 protease expression” value with HIV-1 protease was “ability to inhibit”. In series [4], the “Inhibition of HIV RT (DNA polymerase activity)” value is on record as “inability”.

With `O=C1OC2C(O)OC3COC(=O)c4cc(O)c(O)c(O)c4-c4c(O)c(O)c5oc(=O)c6c(c(O)c(O)c7oc(=O)c4c5c76)-c4c(cc(O)c(O)c4O)C(=O)OC3C2OC(=O)c2cc(O)c(O)c(O)c2-c2c1cc(O)c(O)c2O` (stereo not drawn) [Punicalagins, Punicalagin α + β], in [1] (pure compounds), the “HIV-1 RT-Associated RNase H IC50” value stood at 0.12 ± 0.00 µM. In series [2], the IC50 stood at 0.065 µM. Moreover, the “Inhibition of HIV-1 replication” value with HIV-1 in H9 lymphocytes is “inhibited”. In addition, the Cytotoxicity result with H9 lymphocytes is reported as “low degree of cytotoxicity”.

As for `C=C(C)[C@@H]1CC[C@]2(C(=O)O)CC[C@]3(C)[C@H](CC[C@@H]4[C@@]5(C)CC[C@H](O)C(C)(C)[C@@H]5CC[C@]43C)[C@@H]12` [Betulinic acid], inhibition in series [1] (pure compounds) was half-maximal at 2 ± 0.2 µM (IC50). Moreover, the “Inhibition of HIV-1 RT-associated functions” value in series [5] was “inhibited”. In addition, in series [2], the “Inhibition … (in words)” value was “weakly active” and the IC50 came out at 96.5 ± 3.5 µM.

For `CCOC(=O)C(=O)CC(=O)/C=C/c1cccn1Cc1ccccc1Cl` [RDS1759, reference compound], the “HIV-1 RT-Associated RNase H IC50” value in series [1] (reference compound of Table 1, footnote c: expressed in µM) was 10.7 ± 0.9^c µM.

For the compound `CC1(C)CC[C@]2(C(=O)O)CC[C@]3(C)C(=CC[C@@H]4[C@@]5(C)CC[C@H](O)C(C)(C)[C@@H]5CC[C@]43C)[C@@H]2C1` [Oleanolic acid], the IC50 in [1] (pure compounds) was 6.7 ± 0.4 µM. Besides, in series [2], the remaining activity at 100 µM was determined as 74%, the “Inhibition … (in words)” value was “inactive” and the IC50 was more than 100 µM. For the same compound, the “Inhibition of protease expression” value in the series with HIV-1 protease is listed as “inhibit”.

On to `O=c1cc(-c2ccc(O)cc2)oc2cc(O)cc(O)c12` [Apigenin], for which the IC50 turned out to be 16.1 ± 0.6 µM in [1] (pure compounds) and 22 ± 3.5 µM in [2].
